In brackets after ≈: the same amount, converted by molar mass. Like-named read-outs stand apart in the source and are kept apart here. Bridge positions count the residues as written; N and C are the ends. Ends that are not written are not given here. Peptide text beside a SMILES is read from it. I, II: the chains in the order shown.
Assays:
Type in all cases: cell-based
[1] = system: human red blood cells (hRBC)
Experimental: The peptides' hemolysis was tested in human red blood cells (hRBC). hRBCs were diluted 25× to achieve 4% concentration (v %) in phosphate-buffered saline (PBS, pH 7.4). Upon dilution, the blood suspension was treated with equal volume of (LLKK)4 (SEQ ID NO: 8), [(LLKK)2]2, or [(LLKK)2]4 peptide solution in PBS to reach final peptide concentrations of 0-500 mg/L. The treatment was performed inside a 37° C. incubator for 1 hour, after which the mixture was centrifuged at 1000 g for 5 mins to remove the non-hemolysed blood cells. The supernatant (100 μL) was transferred into a 96-well plate, and measured spectrophotometrically for its absorbance at 567 nm using a microplate reader (TECAN, Switzerland)^[5]. PBS and 0.1% Triton-X were used as negative and positive controls respectively. Hemolysis level was calculated according to the following formula: % Hemolytic=(Absorbance for Peptide treatment−Absorbance for PBS treatment)/(Absorbance for Triton treatment−Absorbance for PBS treatment)×100% Minimum Inhibitory Concentration (MIC)

[2] = system: S. aureus (ATCC No. 29737); conditions: ATCC No. 29737, 18 h
Experimental: (§1) Microbes were re-constituted from their dried pellets obtained from ATCC according to the recommended protocols. Bacterial culture was done in tryptic soy broth at 37° C., while yeast was cultured in yeast mould broth at room temperature, under constant shaking at 100 rpm. Briefly, microbial suspension was first adjusted to contain ˜3×10^8 CFU/mL, by adjusting its 600 nm absorbance to be equivalent to that of the standard McFarland 1 reference. The suspension was then diluted to contain ˜3×10^6 CFU/mL. Under this condition, the O.D. reading was approximately 0.05-0.06 for bacterial cultures, and 0.03-0.04 for yeast cultures. Equal volume (100 μL) of the microbial suspension and the peptide solutions was mixed in a 96-well plate, and the microbial growth was monitored by measuring the O.D. reading at 0 and 18 hours.

[3] = system: C. albicans (ATCC No. 10231); conditions: ATCC No. 10231, 18 h
Experimental: as §1

E. coli (ATCC No. 25922) = conditions: ATCC No. 25922, 18 h
Experimental: as §1

[4] = system: E. aerogenes (ATCC No. 13048); conditions: ATCC No. 13048, 18 h
Experimental: as §1

[5] = system: B. subtilis (ATCC No. 23857); conditions: ATCC No. 23857, 18 h
Experimental: as §1

[6] = system: P. aeruginosa (ATCC No. 9027); conditions: ATCC No. 9027, 18 h
Experimental: as §1

E. coli [7] = conditions: 8 h
Experimental: (§2) Microbial cells were firstly re-constituted from its lyophilized form according to the manufacturer's protocol. Bacterial cells were cultured in tryptic soy broth (TSB) at 37° C., and yeast cells were cultured in yeast mould broth (YMB) at room temperature under constant shaking at 100 rpm. Broth containing an antimicrobial peptide was prepared at various concentrations (0.98, 1.95, 3.90, 7.81, 15.63, 31.25, 62.5, 125, 250, 500 mg/L) and transferred into a 96-well tissue culture plate (100 μL/well). Microorganism was first inoculated overnight to enter its log growth-phase. An equal volume of microorganism solution (100 μL) was added into each well of the 96-well plate containing the antimicrobial peptide. Prior to this mixing, the concentration of microorganism solution was adjusted to give an initial optical density (O.D.) reading of 0.1-0.2 at 600 nm wavelength. The growth of the microorganism was observed upon introducing the antimicrobial peptide by measuring the O.D. readings at 2 hour intervals for up to 8 hours. […] Broth containing microbial cells was used as the negative control, and each test was carried out in 6 replicates. The standard deviations of the 6 readings were reported as the error bars.

B. subtilis = conditions: 8 h
Experimental: as §2

C. albicans = conditions: 8 h
Experimental: as §2

rat red blood cells = experiment: Hemolytic activity test
Experimental: Peptides were obtained from GL Biochem (Shanghai, China), and their fidelity was further confirmed via matrix-assisted laser desorption/ionization time-of-flight mass spectroscopy (MALDI-TOF MS, Model Autoflex II, Bruker Daltonics Inc., U.S.A.), using α-cyano-4-hydroxycinnamic acid as matrix. The purity of the peptides was also tested to be more than 95% with analytical reverse phase (RP)-HPLC. α-Cyano-4-hydroxycinnamic acid (HCCA) was purchased from Sigma-Aldrich (Singapore) and used in saturated acetonitrile/water (1:1 volume ratio) after being re-crystallized. Sodium dodecyl sulphate (SDS) micelle solution (10% w/v in DI water) was obtained from 1st Base (Malaysia) and used upon dilution to the desirable concentration range. Tryptic soy broth (TSB) powder and yeast mould broth (YMB) powder were purchased from BD Diagnostics (Singapore) and used to prepare the microbial broths according to the manufacturer's instructions. Phosphate-buffered saline solution at 10× concentration was purchased from 1st Base (Malaysia) and used after dilution to the desired concentration. Ethanol (analytical grade, 99%) and glutaraldehyde (synthetic grade, 50% in H2O) were purchased from Sigma Aldrich (Singapore) and used as received. […] Red blood cells used in the experiments were obtained from rats maintained at the Animal Handling Units of the Biomedical Research Centers (Singapore). Human peripheral blood mononuclear cells (PBMCs) were extracted from healthy blood donors and maintained with RPMI medium supplemented with 10% lowendotoxin fetal bovine serum (FBS) and 1% penicillin-streptomycin. Granulocyte macrophage-colony stimulating factor (GM-CSF) and lipopolysaccharide were purchased from Sigma-Aldrich and used as received.
Fresh red blood cells were washed with PBS for three times, and were subjected to 25 times dilution with PBS to reach a concentration of approximately 4% (in volume) of the blood cells. The red blood cell suspension (100 μL) was placed into a 96-well cell culture plate and mixed with 100 μL of the antimicrobial peptide solution in PBS at concentrations of 0.98, 1.95, 3.90, 7.81, 15.63, 31.25, 62.5, 125, 250, 500 mg/L. The mixture was then incubated at 37° C. for 1 hour to allow for the hemolysis process to take place. At the end of incubation time, the non-hemolysed red blood cells were separated by centrifugation at 13000 g for 5 minutes. Aliquots (100 μL) of the supernatant were transferred into a new 96-well plate, and the hemoglobin release was measured by checking the UV-absorbance of the samples at 576 nm using a microplate reader (TECAN, Switzerland). Two controls were provided in this assay: an untreated red blood cell suspension in PBS was used as the negative control, and a solution containing red blood cells lysed with 0.1% Triton-X was used as the positive control. Each assay was performed in 6 replicates, and the data were expressed as means and standard deviations of the 6 replicates. Percentage of hemolysis was calculated using the following formula: Hemolysis (%)=[(O.D.576 nm of the treated sample−O.D.576 nm of the negative control)/(O.D.576 nm of positive control−O.D.576 nm of negative control)]×100%. Field Emission-Scanning Electron Microscopy (FE-SEM) Analysis of Bacterial Cells

E. coli [8] = conditions: 2
Experimental: (§3) E. coli and S. aureus were treated at MIC and 2×MIC concentrations with [(LLKK)2]4 peptide. At various time periods (0, 0.5, 1, 2, 5, 8 and 18 hours), microbial suspensions were diluted at 3 different dilutions and plated on 1.5% LB agar plates. Microbial colonies were formed and counted after 24 hours of incubation (for bacteria) or 48 hours of incubation (for yeast).

S. aureus = conditions: 2
Experimental: as §3

| Compound | HC50 [1] [mg/L] | hemolytic activity towards human red blood cells, in words [1] | MIC S. aureus [2] [µg/mL] | MIC C. albicans [3] [µg/mL] | MIC E. coli (E. coli (ATCC No. 25922)) [µg/mL] | MIC E. aerogenes [4] [µg/mL] | MIC B. subtilis [5] [µg/mL] | MIC P. aeruginosa [6] [µg/mL] | MIC E. coli (E. coli [7]) [µg/mL] | MIC B. subtilis (B. subtilis) [µg/mL] | MIC C. albicans (C. albicans) [µg/mL] | hemolysis at the MIC against B. subtilis (rat red blood cells) [%] | HC50 (50% hemolytic concentration) (rat red blood cells; red cells of rat, 1 h) [mg/L] | hemolysis at 500 mg/L ([1]; red cells of human, 500) [%] | HC50 ([1]; red cells of human, 1 h) [mg/L] | cells killed after 1 hour (E. coli [8]; 1 h) | cells killed after 8 hours (E. coli [8]; 8 h) | cells killed after 1 hour (S. aureus; 1 h) | cells killed after 8 hours (S. aureus; 8 h) |
| --- | --- | --- | --- | --- | --- | --- | --- | --- | --- | --- | --- | --- | --- | --- | --- | --- | --- | --- | --- |
| LLKKLLKKLLKKLLKK-NH2 [(LLKK)4, LLKKLLKKLLKKLLKK-NH2] | ~37.5 | significant hemolysis at concentrations around its MICs | >50 | >50 | 12.5 | 25 | 6.3 | 6.3 | >50 | 10 | >50 | ~30 | ~24 | – | – | – | – | – | – |
| CC(C)C[C@H](NC(=O)[C@H](CC(C)C)NC(=O)[C@H](CCCCN)NC(=O)[C@H](CCCCN)NC(=O)[C@H](CC(C)C)NC(=O)[C@@H](N)CC(C)C)C(=O)N[C@@H](CCCCN)C(=O)N[C@@H](CCCCN)C(=O)NCCCC[C@H](NC(=O)[C@H](CCCCN)NC(=O)[C@H](CCCCN)NC(=O)[C@H](CC(C)C)NC(=O)[C@H](CC(C)C)NC(=O)[C@H](CCCCN)NC(=O)[C@H](CCCCN)NC(=O)[C@H](CC(C)C)NC(=O)[C@@H](N)CC(C)C)C(=O)N[C@@H](CS)C(N)=O [[(LLKK)2]2, [LLKKLLKK]2K*C—CONH2] (I: H-LLKKLLKKKC-NH2 / II: H-LLKKLLKK; amide I:9-II:C) | – | – | >500 | 63 (≈ 28.9 µM) | 31 (≈ 14.2 µM) | 125 (≈ 57.4 µM) | 8 (≈ 3.67 µM) | 8 (≈ 3.67 µM) | – | – | – | – | – | ~18 | >500 | – | – | – | – |
| CC(C)C[C@H](NC(=O)[C@H](CC(C)C)NC(=O)[C@H](CCCCN)NC(=O)[C@H](CCCCN)NC(=O)[C@H](CC(C)C)NC(=O)[C@@H](N)CC(C)C)C(=O)N[C@@H](CCCCN)C(=O)N[C@@H](CCCCN)C(=O)NCCCC[C@H](NC(=O)[C@H](CCCCN)NC(=O)[C@H](CCCCN)NC(=O)[C@H](CC(C)C)NC(=O)[C@H](CC(C)C)NC(=O)[C@H](CCCCN)NC(=O)[C@H](CCCCN)NC(=O)[C@H](CC(C)C)NC(=O)[C@@H](N)CC(C)C)C(=O)N[C@@H](CSSC[C@H](NC(=O)[C@H](CCCCNC(=O)[C@H](CCCCN)NC(=O)[C@H](CCCCN)NC(=O)[C@H](CC(C)C)NC(=O)[C@H](CC(C)C)NC(=O)[C@H](CCCCN)NC(=O)[C@H](CCCCN)NC(=O)[C@H](CC(C)C)NC(=O)[C@@H](N)CC(C)C)NC(=O)[C@H](CCCCN)NC(=O)[C@H](CCCCN)NC(=O)[C@H](CC(C)C)NC(=O)[C@H](CC(C)C)NC(=O)[C@H](CCCCN)NC(=O)[C@H](CCCCN)NC(=O)[C@H](CC(C)C)NC(=O)[C@@H](N)CC(C)C)C(N)=O)C(N)=O [[(LLKK)2]4, [LLKKLLKK]2K*C—S—S—CK*[KKLLKKLL]2] (I: H-LLKKLLKKKC-NH2 / II: H-LLKKLLKKKC-NH2 / III: H-LLKKLLKK / IV: H-LLKKLLKK; amide I:9-III:C, II:9-IV:C; disulfide I:10-II:10) | – | only hemolytic at an acceptable level | 400 (≈ 91.8 µM) | 125 (≈ 28.7 µM) | – | 63 (≈ 14.5 µM) | 16 (≈ 3.67 µM) | 8 (≈ 1.84 µM) | – | – | – | – | – | – | >500 | more than 50% | more than 99.99% | more than 50% | more than 99.99% |
